In patent US12365655B2, “Compounds” (CTXT PTY LTD, priority 2018, dated 2025):

How the values were obtained:
[1] = tested on: acetylation of the histone H3 Lysine 14 marker in U2OS cells; test: Histone H3 Lysine 14 Acetylation Biomarker Assay; type: cell-based; details: Homo sapiens, serum free medium, 24 hours incubation, read-out: IC50, inhibition of histone H3 Lysine 14 acetylation
Description: Compounds were tested for their ability to inhibit acetylation of the histone H3 Lysine 14 marker in the following assay:
The cell line U2OS was seeded at a density of 3,000 cells per well in 384-well optical quality tissue culture plates in RPMI medium supplemented with 10% foetal bovine serum and 10 mM Hepes. The cells were allowed to adhere for 24 hours under standard culture conditions (37 degree Celsius, 5% CO2). At the end of this period the cells were washed with serum free medium. […] After incubation for 24 hours, the cells were fixed with 4% formaldehyde in PBS for 15 minutes at room temperature, washed with phosphate buffer saline and blocked with blocking buffer containing 0.2% TritonX100 and 2% BSA. Anti-H3K14ac specific antibody (Cell Signalling Technologies) in blocking buffer was added and incubated overnight at 4 degree Celsius. After washing, a secondary antibody labelled with AlexaFluor 488 dye (ThermoFisher) and Hoechst 33342 (1 μg/mL, Life Technologies) were added for 2 hours incubation at room temperature. Plates were washed and read on a PerkinElmer Opera HCS high content imaging platform. Using a Columbus image analysis pipeline, individual nuclei were located by Hoechst 33342 stain and the acetylation level was calculated from the AlexaFluor 488-related intensity in the same area.

[2] = tested on: acetylation of the histone H3K23 marker in U2OS cells; test: Histone H3 Lysine 23 Acetylation Biomarker Assay; type: cell-based; details: Homo sapiens, 24 hours incubation, read-out: IC50, inhibition of histone H3K23 acetylation
Description: Compounds were tested for their ability to inhibit acetylation of the histone H3K23 marker in the following assay:
The cell line U2OS was seeded at a density of 9,000 cells per well in 96 well optical quality tissue culture plates in RPMI medium and 10% foetal bovine serum, and allowed to adhere for 24 hours under standard culture conditions (37 degree Celsius, 5% CO2). At the end of this period the medium was aspirated. […] After incubation for 24 hours, the cells were fixed with 3.7% formaldehyde in PBS for 20 minutes at room temperature, washed (5×5 minutes) with phosphate buffer saline containing 0.1% Tween 20 and blocked with Odyssey blocking buffer (LI-COR, Lincoln, Nebr.) containing 0.1% TritonX100. Anti-H3K23ac specific antibody (Abcam ab177275) in Odyssey blocking buffer containing 0.1% Tween 20 was added and incubated for 16 hours at 4 degree Celsius. After washing (as above), a secondary antibody labelled with Alexa647 dye (LifeTechnologies) and Hoechst 33342 (1 μg/mL, SigmaAldrich) were added for 1 hour incubation. Plates were washed as previously and read on a PerkinElmer Phenix high content imaging platform. Using a Columbus image analysis pipeline, individual nuclei were located by Hoechst 33342 stain and the acetylation level was calculated from the Alexa647-related intensity in the same area.

QKF-KAT6B = molecular target: T1, QKF-KAT6B (Homo sapiens, UniProt Q8WYB5); test: Acetyltransferase biochemical assay (AlphaScreen), KAT6B; details: 8 nM KAT6B, 1 μM AcCoA, 100 nM histone H3.1
T1 construct: purchased SignalChem K315-381BG
T1 sequence (Q8WYB5 whole entry): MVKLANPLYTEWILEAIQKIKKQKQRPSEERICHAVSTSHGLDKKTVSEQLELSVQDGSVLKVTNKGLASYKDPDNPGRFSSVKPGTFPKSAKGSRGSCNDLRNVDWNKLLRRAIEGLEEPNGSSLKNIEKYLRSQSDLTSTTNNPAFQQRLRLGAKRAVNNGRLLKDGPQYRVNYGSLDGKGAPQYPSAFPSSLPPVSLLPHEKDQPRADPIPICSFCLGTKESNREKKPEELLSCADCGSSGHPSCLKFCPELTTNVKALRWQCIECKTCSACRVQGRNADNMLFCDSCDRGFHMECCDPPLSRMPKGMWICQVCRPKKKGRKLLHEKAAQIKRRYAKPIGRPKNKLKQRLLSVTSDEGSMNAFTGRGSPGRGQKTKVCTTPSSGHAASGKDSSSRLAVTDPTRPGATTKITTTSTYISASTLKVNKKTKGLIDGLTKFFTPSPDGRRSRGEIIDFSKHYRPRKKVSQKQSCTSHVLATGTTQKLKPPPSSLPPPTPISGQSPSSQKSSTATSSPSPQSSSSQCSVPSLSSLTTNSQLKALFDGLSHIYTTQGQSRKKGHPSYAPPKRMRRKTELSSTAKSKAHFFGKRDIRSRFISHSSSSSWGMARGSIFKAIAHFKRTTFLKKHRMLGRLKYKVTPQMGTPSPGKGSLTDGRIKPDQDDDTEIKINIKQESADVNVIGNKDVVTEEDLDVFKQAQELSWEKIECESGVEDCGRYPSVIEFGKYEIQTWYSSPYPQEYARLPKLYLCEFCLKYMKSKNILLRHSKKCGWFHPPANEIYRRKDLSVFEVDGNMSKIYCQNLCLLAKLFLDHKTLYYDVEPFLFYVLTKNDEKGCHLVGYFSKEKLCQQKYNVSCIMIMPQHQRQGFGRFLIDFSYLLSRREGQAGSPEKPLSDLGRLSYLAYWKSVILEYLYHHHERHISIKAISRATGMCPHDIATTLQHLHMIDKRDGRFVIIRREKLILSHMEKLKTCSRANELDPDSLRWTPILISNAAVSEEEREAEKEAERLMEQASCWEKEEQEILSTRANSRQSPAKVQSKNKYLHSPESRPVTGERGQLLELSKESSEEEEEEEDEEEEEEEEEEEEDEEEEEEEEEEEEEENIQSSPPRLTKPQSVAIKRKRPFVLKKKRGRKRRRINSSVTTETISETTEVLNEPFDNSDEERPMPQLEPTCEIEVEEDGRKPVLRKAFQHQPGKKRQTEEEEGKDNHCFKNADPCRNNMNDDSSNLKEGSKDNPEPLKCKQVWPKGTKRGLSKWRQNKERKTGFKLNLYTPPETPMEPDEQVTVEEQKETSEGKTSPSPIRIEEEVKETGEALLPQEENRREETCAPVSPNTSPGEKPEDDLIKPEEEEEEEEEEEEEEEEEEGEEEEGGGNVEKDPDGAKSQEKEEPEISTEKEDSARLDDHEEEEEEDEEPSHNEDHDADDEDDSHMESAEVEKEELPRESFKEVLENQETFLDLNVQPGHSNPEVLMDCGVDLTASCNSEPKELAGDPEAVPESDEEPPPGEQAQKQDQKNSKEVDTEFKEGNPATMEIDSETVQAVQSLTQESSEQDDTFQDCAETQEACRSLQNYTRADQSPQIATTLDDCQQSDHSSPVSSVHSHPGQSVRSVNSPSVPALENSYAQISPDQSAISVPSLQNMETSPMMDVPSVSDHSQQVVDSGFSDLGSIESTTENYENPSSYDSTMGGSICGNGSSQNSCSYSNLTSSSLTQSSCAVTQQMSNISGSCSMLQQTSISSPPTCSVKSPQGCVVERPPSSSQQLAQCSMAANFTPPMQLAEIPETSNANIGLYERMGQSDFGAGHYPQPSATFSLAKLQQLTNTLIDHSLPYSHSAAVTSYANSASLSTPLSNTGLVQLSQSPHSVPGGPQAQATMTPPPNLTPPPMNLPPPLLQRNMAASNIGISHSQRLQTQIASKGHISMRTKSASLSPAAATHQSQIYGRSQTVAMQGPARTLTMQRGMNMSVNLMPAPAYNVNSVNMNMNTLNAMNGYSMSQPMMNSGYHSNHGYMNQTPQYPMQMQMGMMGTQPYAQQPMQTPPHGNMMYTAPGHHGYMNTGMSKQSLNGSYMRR
Source text: KAT6B was obtained from SignalChem, catalog ID: K315-381BG

TIP60-KAT5 = TIP60-KAT5 (Homo sapiens, UniProt Q92993); test: Acetyltransferase biochemical assay (AlphaScreen), KAT5
TIP60-KAT5, sequence (Q92993 with tags, fused parts or gaps isoform Q92993-2): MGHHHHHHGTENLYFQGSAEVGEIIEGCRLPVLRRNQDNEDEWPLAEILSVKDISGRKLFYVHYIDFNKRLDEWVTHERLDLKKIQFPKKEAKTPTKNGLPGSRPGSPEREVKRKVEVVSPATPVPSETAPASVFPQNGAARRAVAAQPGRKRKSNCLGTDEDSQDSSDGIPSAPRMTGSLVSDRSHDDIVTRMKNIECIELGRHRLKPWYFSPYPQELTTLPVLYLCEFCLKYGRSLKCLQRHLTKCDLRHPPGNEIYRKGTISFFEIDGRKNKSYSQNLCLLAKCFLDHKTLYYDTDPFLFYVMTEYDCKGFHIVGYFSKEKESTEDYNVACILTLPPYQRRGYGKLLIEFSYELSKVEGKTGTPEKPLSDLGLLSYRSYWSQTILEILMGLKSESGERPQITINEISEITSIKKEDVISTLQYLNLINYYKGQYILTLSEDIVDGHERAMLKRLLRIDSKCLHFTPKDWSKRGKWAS

MOZ-KAT6A = MOZ-KAT6A (Homo sapiens, UniProt Q92794, A567V); test: Acetyltransferase biochemical assay (AlphaScreen), KAT6A
MOZ-KAT6A, sequence (Q92794 with tags, fused parts or gaps A567V): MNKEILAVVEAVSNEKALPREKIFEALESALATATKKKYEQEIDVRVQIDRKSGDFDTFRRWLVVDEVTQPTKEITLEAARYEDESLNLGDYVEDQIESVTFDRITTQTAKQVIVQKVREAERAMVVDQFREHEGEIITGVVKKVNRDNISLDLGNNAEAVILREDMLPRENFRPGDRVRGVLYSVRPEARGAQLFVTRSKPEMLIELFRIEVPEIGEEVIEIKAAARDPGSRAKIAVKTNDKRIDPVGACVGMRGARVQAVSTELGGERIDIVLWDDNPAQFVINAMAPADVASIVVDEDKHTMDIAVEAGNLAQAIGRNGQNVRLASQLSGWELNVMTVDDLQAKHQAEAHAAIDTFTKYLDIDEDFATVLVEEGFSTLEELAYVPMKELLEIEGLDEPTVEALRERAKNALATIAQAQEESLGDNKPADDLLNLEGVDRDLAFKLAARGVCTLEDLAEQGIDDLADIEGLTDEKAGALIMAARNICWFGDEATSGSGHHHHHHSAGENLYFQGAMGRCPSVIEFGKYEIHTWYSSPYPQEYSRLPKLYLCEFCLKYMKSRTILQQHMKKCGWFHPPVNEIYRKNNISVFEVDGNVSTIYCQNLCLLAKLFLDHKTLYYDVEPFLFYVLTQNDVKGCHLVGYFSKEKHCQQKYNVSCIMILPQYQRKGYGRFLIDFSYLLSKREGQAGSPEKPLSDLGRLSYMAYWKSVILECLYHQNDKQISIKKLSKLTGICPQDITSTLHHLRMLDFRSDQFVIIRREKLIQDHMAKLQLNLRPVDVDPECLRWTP

HBO-KAT7 = HBO-KAT7 (Homo sapiens, UniProt O95251); test: Acetyltransferase biochemical assay (AlphaScreen), KAT7
HBO-KAT7, sequence (O95251 with tags, fused parts or gaps): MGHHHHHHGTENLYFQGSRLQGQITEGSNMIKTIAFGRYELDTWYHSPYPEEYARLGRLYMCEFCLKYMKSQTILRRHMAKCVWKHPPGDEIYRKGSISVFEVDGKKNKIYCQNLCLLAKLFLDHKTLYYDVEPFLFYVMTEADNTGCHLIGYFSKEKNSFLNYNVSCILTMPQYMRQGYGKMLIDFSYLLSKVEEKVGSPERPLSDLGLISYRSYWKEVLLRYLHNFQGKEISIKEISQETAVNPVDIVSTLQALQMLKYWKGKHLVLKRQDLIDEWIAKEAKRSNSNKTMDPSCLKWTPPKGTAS

[3] = tested on: histone H2A.Z Lysine 7 acetylation marker in U2OS cells; test: H2A.Z Lysine 7 Acetylation Biomarker Assay; type: cell-based; details: Homo sapiens, serum free medium, 24 hours incubation, read-out: IC50, inhibition of histone H2A.Z Lysine 7 acetylation
Description: Compounds were tested for their ability to inhibit the histone H2A.Z Lysine 7 acetylation marker in the following assay:
The cell line U2OS was seeded at a density of 3,000 cells per well in 384-well optical quality tissue culture plates in RPMI medium supplemented with 10% foetal bovine serum and 10 mM Hepes. The cells were allowed to adhere for 24 hours under standard culture conditions (37 degree Celsius, 5% CO2). At the end of this period the cells were washed with serum free medium. […] 2018, at 30 μM concentration. After incubation for 24 hours, the cells were fixed with 4% formaldehyde in PBS for 15 minutes at room temperature, washed with phosphate buffer saline and blocked with blocking buffer containing 0.2% TritonX100 and 2% BSA. Anti-H2A.ZK7ac specific antibody (Abcam) in blocking buffer was added and incubated overnight at 4 degree Celsius. After washing, a secondary antibody labelled with AlexaFluor 488 dye (ThermoFisher) and Hoechst 33342 (1 μg/mL, Life Technologies) were added for 2 hours incubation at room temperature. Plates were washed and read on a PerkinElmer Opera HCS high content imaging platform. Using a Columbus image analysis pipeline, individual nuclei were located by Hoechst 33342 stain and the acetylation level was calculated from the AlexaFluor 488-related intensity in the same area.

MOF-KAT8 = molecular target: T2, MOF-KAT8 (Homo sapiens, UniProt Q9H7Z6); test: biochemical
T2 sequence (Q9H7Z6 with tags, fused parts or gaps): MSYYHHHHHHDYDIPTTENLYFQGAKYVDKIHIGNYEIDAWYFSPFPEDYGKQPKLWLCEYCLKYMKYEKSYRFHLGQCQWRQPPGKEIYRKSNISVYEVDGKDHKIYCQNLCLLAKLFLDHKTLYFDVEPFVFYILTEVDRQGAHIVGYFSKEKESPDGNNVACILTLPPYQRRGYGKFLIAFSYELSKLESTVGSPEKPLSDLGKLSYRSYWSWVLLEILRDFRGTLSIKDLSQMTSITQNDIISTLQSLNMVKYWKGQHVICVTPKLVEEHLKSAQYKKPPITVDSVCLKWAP

| SMILES | IC50 [1] | IC50 [2] | IC50 (QKF-KAT6B) | IC50 (TIP60-KAT5) | IC50 (MOZ-KAT6A) | IC50 (HBO-KAT7) | IC50 [3] | IC50 (MOF-KAT8) |
| --- | --- | --- | --- | --- | --- | --- | --- | --- |
| COc1cccc(OC)c1S(=O)(=O)Nc1noc2cc(-c3ncco3)ccc12 [Example 147, 2,6-Dimethoxy-N-(6-(oxazol-2-yl)benzo[d]isoxazol-3-yl)benzenesulfonamide] | > 40000 nM | > 10000 nM | > 125000 nM | > 125000 nM | 93600 nM | > 125000 nM | > 40000 nM |  |
| COc1cccc(OC)c1S(=O)(=O)Nc1noc2cc(OC(F)F)cc(OC)c12 [Example 242] |  | 672 nM |  | 27300 nM | 3230 nM | 1780 nM |  |  |
| COCc1cc2onc(NS(=O)(=O)c3c(OC)cccc3OC)c2c(OC)c1Cl [Example 145] | 3380 nM | 98 nM |  | 21000 nM | 127 nM | 259 nM | > 40000 nM |  |
| COc1cccc(OC)c1S(=O)(=O)Nc1noc2cc(-c3ccccn3)cc(OC)c12 [Example 146, 2,6-Dimethoxy-N-(4-methoxy-6-(pyridin-2-yl)benzo[d]isoxazol-3-yl)benzenesulfonamide] | 2300 nM | 45 nM | 291 nM | 22000 nM | 153 nM | 511 nM | 15100 nM |  |
| CCc1ccc(OC)c(S(=O)(=O)Nc2noc3c(-c4cnn(C)c4)cccc23)c1 [Example 191, 5-Ethyl-2-methoxy-N-(7-(1-methyl-1H-pyrazol-4-yl)benzo[d]isoxazol-3-yl)benzenesulfonamide] | 17800 nM | > 10000 nM |  | 68700 nM | 12600 nM | 1580 nM | > 40000 nM |  |
| COc1cccc(OC)c1S(=O)(=O)Nc1noc2cc(-c3ncco3)c(C)cc12 [Example 102, 2,6-Dimethoxy-N-(5-methyl-6-(oxazol-2-yl)benzo[d]isoxazol-3-yl)benzenesulfonamide] | 3690 nM |  | 282 nM | 9330 nM | 143 nM | 568 nM | > 40000 nM | 11500 nM |
| COc1cccc(OC)c1S(=O)(=O)Nc1noc2c(-c3cnn(C)c3)ccc(OC)c12 [Example 143, 2,6-Dimethoxy-N-(4-methoxy-7-(1-methyl-1H-pyrazol-4-yl)benzo[d]isoxazol-3-yl)benzenesulfonamide] |  |  | 50700 nM | > 125000 nM | 32400 nM | 7880 nM |  |  |
| COc1ccc(-c2ccccc2)c(OC)c1S(=O)(=O)Nc1noc2cccc(OC)c12 [Example 96, 2,4-Dimethoxy-N-(4-methoxybenzo[d]isoxazol-3-yl)-[1,1-biphenyl]-3-sulfonamide] |  | > 10000 nM | 3390 nM | 28600 nM | 1200 nM | 4270 nM |  | 53800 nM |
| COCc1cc(OC)c2c(NS(=O)(=O)c3c(OC)ccc(Cl)c3OC)noc2c1 [Example 175, 3-Chloro-2,6-dimethoxy-N-(4-methoxy-6-(methoxymethyl)benzo[d]isoxazol-3-yl)benzenesulfonamide] |  |  | 821 nM | 43200 nM | 441 nM | 5950 nM |  |  |

Continued by falling IC50 (TIP60-KAT5), values first:

| IC50 [1] | IC50 [2] | IC50 (QKF-KAT6B) | IC50 (TIP60-KAT5) | IC50 (MOZ-KAT6A) | IC50 (HBO-KAT7) | IC50 [3] | SMILES | IC50 (MOF-KAT8) |
| --- | --- | --- | --- | --- | --- | --- | --- | --- |
| 3480 nM | 3710 nM |  | 12200 nM | 423 nM | 50 nM | 13200 nM | COc1cncc(-c2cc(OC)c3c(NS(=O)(=O)c4c(OC)cccc4OC)noc3c2)c1 [Example 250, 2,6-Dimethoxy-N-(4-methoxy-6-(5-methoxypyridin-3-yl)benzo[d]isoxazol-3-yl)benzenesulfonamide] |  |
| 2950 nM | 128 nM | 57 nM | 11500 nM | 261 nM | 286 nM | 18800 nM | COc1cccc(OC)c1S(=O)(=O)Nc1noc2cc(-c3ncco3)cc(OC)c12 [Example 144, 2,6-Dimethoxy-N-(4-methoxy-6-(oxazol-2-yl)benzo[d]isoxazol-3-yl)benzenesulfonamide] |  |
|  | 3460 nM | 1620 nM | 10500 nM | 560 nM | 1440 nM |  | CCc1ccc(OC)c(S(=O)(=O)Nc2noc3cccc(OC)c23)c1 [Example 116, 5-Ethyl-2-methoxy-N-(4-methoxybenzo[d]isoxazol-3-yl)benzenesulfonamide] |  |
| 135 nM | 1490 nM | 92 nM | 7080 nM | 127 nM | 21 nM | 1090 nM | COc1cccc(-c2cc(OC)c3c(NS(=O)(=O)c4c(OC)cccc4OC)noc3c2)c1 [Example 177, 2,6-Dimethoxy-N-(4-methoxy-6-(3-methoxyphenyl)benzo[d]isoxazol-3-yl)benzenesulfonamide] |  |
| 1090 nM | 45 nM | 49 nM | 6180 nM | 61 nM | 444 nM | 28000 nM | COCc1cc2onc(NS(=O)(=O)c3c(OC)cccc3OC)c2cc1C [Example 97, 2,6-Dimethoxy-N-(6-(methoxymethyl)-5-methylbenzo[d]isoxazol-3-yl)benzenesulfonamide] |  |
|  |  | 1450 nM | 4610 nM | 104 nM | 257 nM |  | CCc1ccc(OC)c(S(=O)(=O)Nc2noc3ccc(C4CC4)c(Cl)c23)c1 [Example 207] |  |
| 68 nM | 17 nM | 18 nM | 1830 nM | 13 nM | 31 nM | 1540 nM | COc1cccc(OC)c1S(=O)(=O)Nc1noc2cc(-c3ccccc3)cc(OC)c12 [Example 174, 2,6-Dimethoxy-N-(4-methoxy-6-phenylbenzo[d]isoxazol-3-yl)benzenesulfonamide] |  |
| 703 nM | 13 nM | 53 nM | 1390 nM | 6 nM | 60 nM | 4620 nM | COc1cccc(OC)c1S(=O)(=O)Nc1noc2cc(-c3cccc(O)c3)cc(OC)c12 [Example 92] |  |
| 26100 nM | > 10000 nM |  | 672 nM | 2120 nM | 248 nM | > 40000 nM | COc1ccccc1S(=O)(=O)Nc1noc2cccc(Cl)c12 [Example 155] |  |
